Test results: US9192610B2, “Use of quinazoline derivatives for neurodegenerative diseases” (CONSEJO SUPERIOR DE INVESTIGACIONES CIENTIFICAS, priority 2009, dated 2015)

How the values were obtained:
[1] = Antioxidant effect, ORAC-FL method (capacity to capture free radicals); conditions: 75 mM phosphate buffer pH 7.4, 37° C., compounds tested at 4 concentrations
Excerpt: Given that in many neurodegenerative diseases neuronal death occurs due to oxidative stress, the capacity of these compounds to capture free radicals has been evaluated using the ORAC methodology.
Determination is following the ORAC-FL method of Ou et al. partially adapted by BMG LABTECH (BMG LABTECH Application note 148 (2006): ORAC Assay on the FLUOstar OPTIMA to Determine Antioxidant Capacity. http://www.bmglabtech.com/application-notes/fluorescence-intensity/orac 148.cfm). The FLUOstar Optima (BMG Labtechnologies GmbH, Offenburg, Germany) plate reader was used with an excitation filter at 485 nm excitation and 520 nm emission. 2,2′-Azobis-(amidinopropane) dihydrochloride (AAPH), (±)-6-hydroxy-2,5,7,8-tetramethylchromane-2-carboxylic acid (trolox) and fluorescein (FL) are purchased from Sigma-Aldrich. The reaction is carried out in 75 mM phosphate buffer (pH 7.4) and a final reaction volume of 200 μL. The antioxidant (25 μL) and fluorescein (150 μL; 10 nM) are placed on black 96-well plates (96F untreat, Nunc™). The mixture is pre-incubated during 30 minutes at 37° C. afterwards rapidly adding a solution of AAPH (25 μL, 240 mM), using a multi-channel pipette. The microplate is rapidly placed on the reader and fluorescence is measured every 90 sec during 90 min. The 96-well plate is agitated automatically before each reading. The compounds are tested at 4 different concentrations (10-1 μ). A blank is also placed (FL+AAPH in phosphate buffer) and as reference compound four concentrations of trolox (10-1 μM). All reactions are carried out in duplicate, and at least three different tests per compound. Data are exported to an Excel spreadsheet (Microsoft), representing absorbance versus time and subsequently the area under curve is calculated following the formula (1) AUC=f1/f0+fi/f0+ . . . +f34/f0+(f35/f0) wherein: AUC=area under curve • f0=fluorescence measured at time 0 • fi=fluorescence measured at time t
The net AUC values of each compound are determined by subtracting from the AUC value of the compound the AUC value of the blank (FL+AAPH in phosphate buffer).
The measurement of antioxidant is expressed in trolox equivalents. Relative trolox equivalents are calculated according to formula (2): […]

[2] = commercial drugs used to validate the PAMPA assay; literature value; cited from earlier work

| SMILES | Antioxidant capacity, Trolox equivalents [1] | Bibliography (described permeability) [2] |
| --- | --- | --- |
| O=c1c2ccccc2[nH]c(=S)n1-c1ccccc1 [Comp. 1, 3-phenyl-4-oxo-2-thioxo-1,2,3,4-tetrahydroquinazoline] | 1.19 Trolox equivalents |  |
| O=c1c2ccccc2[nH]c(=S)n1-c1c(F)cccc1F [Comp. 2, 3-(2,6-difluorophenyl)-4-oxo-2-thioxo-1,2,3,4-tetrahydroquinazoline] | Not to 10 μM |  |
| Cc1cccc2c(=O)n(-c3ccccc3Br)c(=S)[nH]c12 [Comp. 3, 3-(2-bromophenyl)-8-methyl-4-oxo-2-thioxo-1,2,3,4-tetrahydroquinazoline] | 1.31 Trolox equivalents |  |
| CSc1nc2c(C)cccc2c(=O)n1-c1c(F)cccc1F [Comp. 4, 3-(2,6-difluorophenyl)-8-methyl-2-methylthio-4-oxo-3,4-dihydroquinazoline] | 0.13 Trolox equivalents |  |
| CSc1nc2c(C)cccc2c(=O)n1-c1ccccc1Br [Comp. 5, 3-(2-bromophenyl)-8-methyl-2-methylthio-4-oxo-3,4-dihydroquinazoline] | Not to 10 μM |  |
| S=c1[nH]c2ccccc2c(=S)n1-c1ccccc1 [Comp. 6, 3-phenyl-2,4-dithioxo-1,2,3,4-tetrahydroquinazoline] | 0.46 Trolox equivalents |  |
| CSc1nc2ccccc2c(=S)n1-c1ccccc1 [Comp. 7, 3-phenyl-2-methylthio-4-thioxo-3,4-dihydroquinazoline] | 0.37 Trolox equivalents |  |
| CCn1cc(C(=O)O)c(=O)c2cc(F)c(N3CCNCC3)nc21 [Enoxacine] |  | 1.8 |
| CN(C)CCCN1c2ccccc2Sc2ccccc21 [Promazine] |  | 8.1 |
